Experimental data published in US20250051762A1, “PLATFORM USING DNA-ENCODED SMALL MOLECULE LIBRARIES AND RNA SELECTION TO DESIGN SMALL MOLECULES THAT TARGET RNA” (University of Florida Research Foundation, Incorporated, priority 2021, published 2025).

Legend:
[1] = system: MDA-MB-231 cells; experiment: Global proteomics profiling by LC-MS/MS in MDA-MB-231 cells; type: cell-based, human
Description: Global proteomics profiling using LC-MS/MS: Treated cell pellets were resuspended in 1×PBS, lysed by sonication, and protein concentration was determined by using a Bradford assay (Bio-Rad). Samples (30 μg) were denatured in 6 M urea in 50 mM NH4HCO3, pH 8, reduced for 30 min with 10 mM TCEP, and alkylated for 30 min in the dark with 25 mM iodoacetamide. Samples were diluted to 2 M urea with 50 mM NH4HCO3, pH 8, and the proteins were digested with trypsin (1 μL of 0.5 μg/μL) in the presence of 1 mM CaCl2) for 12 h at 37° C. The samples were acidified by adding acetic acid to a final concentration of 5% (v/v). After desalting the samples over a self-packed C18 spin column, they were dried and analyzed by LC-MS/MS (see below). The resulting MS data were processed with MaxQuant as described below.
LC-MS/MS analysis: Peptides were dissolved in water containing 0.1% formic acid (FA) and analyzed using an EASY-nLC 1200 nano-UHPLC connected to a Q Exactive HF-X Quadrupole-Orbitrap mass spectrometer (Thermo Scientific). A 50 cm long, 75 μm i.d. chromatography column packed with ReproSil-Pur 120 C18-AQ 2.4 μm beads (Dr. Maisch GmbH) and capped by a 5 μm tip was used. Water with 0.1% FA in water (Buffer A) and 90% acetonitrile (MeCN): 10% water with 0.1% FA (Buffer B) were used as liquid chromatography solvents. A flow rate of 300 nL/min over a 240 min linear gradient (5-35% Buffer B) at 65° C. was used to clute peptides into the mass spectrometer. Data-dependent acquisition (top-20, NCE 28, R=7,500) after full MS scan (R=60,000, m/z 400-1,300) with a dynamic exclusion of 10 seconds was performed. Peptide match to prefer and isotope exclusion were selected and enabled.
MaxQuant analysis: The MaxQuant software (13) (V1.6.1.0) was used to analyzed the MS data and searched against the human proteome (Uniprot) and a common list of contaminants (included in MaxQuant). Peptide search tolerance was set to 20 ppm for the first search and 10 ppm for the main search while 0.02 Da was used for the fragment mass tolerance. The false discovery rate (FDR) for peptides, proteins and sites identification was set to 1%. Peptide length was set to at least 6 amino acids and peptide re-quantification was enabled. Label-free quantification (MaxLFQ) and “match between runs” were activated. Number of peptides per protein was set to ≥2. Searched modifications were methionine oxidation (variable modification) and carbamidomethylation of cysteines (fixed modification).
TargetScan analysis: TargetScanHuman v7.2 was used to predict downstream protein targets of miR-27a-3p (n=1421), miR-23a-3p (n=1342) and miR-24-3p (n=761) containing conserved sites, all proteins with a context score≤0 were included to the analysis per TargetScan recommendation. Approximately 15% of miR-27a-3p targets (220/1421), ˜18% of miR-23a-3p targets (247/1342), and ˜16% of miR-24-3p targets (122/761) were detectable in the global proteomics analysis. […] Targets of miR-23a-3p and miR-24-3p were used as comparison as the two miRNAs are expressed at similar levels as miR-27a-3p in MDA-MB-231 cells and are located in the same cluster. P values between distributions were calculated using a two-tailed Kolmogorov-Smirnov test.

[2] = system: miR-23a; experiment: RT-qPCR of mature miR-23a in MDA-MB-231 cells; type: cell-based, human
Description: Cell lines. Compounds were tested in MDA-MB-231 TNBC cells (HTB-26, ATCC), LNCaP metastatic prostate cancer cells (gifted from Junli Luo lab), MCF-7 (HTB-22, ATCC) breast cancer cells, HeLa cervical adenocarcinoma cells (CCL-2, ATCC), and MCF-10a, a model of healthy breast epithelial cells (CRL-10317, ATCC).
Cell culture and compound treatment. All cells were maintained at 37° C. with 5% CO2. MDA-MB-231 and LNCaP cells were cultured in RPMI 1640 medium with L-glutamine & 25 mM HEPES (Corning) supplemented with 10% (v/v) fetal bovine serum (FBS; Sigma) and 1× (v/v) Antibiotic-Antimycotic solution (Corning). MCF-7 and HeLa cells were cultured in DMEM medium with 4.5 g/L glucose (Corning), supplemented with 10% FBS, 1× (v/v) Glutagro (Corning), and 1× (v/v) Antibiotic-Antimycotic solution. […]
Analysis of mRNA abundance: Each cell line was grown as a monolayer in 12- or 24-well plates and treated as described in “Cell culture and compound treatment”. […] Relative abundance of mature miRNAs was calculated by normalizing to RNU6, and relative abundance for pri-miRNAs and mRNAs was calculated by normalizing to 18S ribosomal RNA, using the AAC, method. […]

[3] = 100 nM, 3,127 detectable proteins, FDR <5%
[4] = treated vs. vehicle, relative to all proteins

Compound: C#CCN(CC(N)=O)C(=O)C[C@H](Cc1c[nH]c2ccccc12)NC(=O)[C@@H]1C[C@H](NC(=O)Cn2c(=O)[nH]c3ccccc3c2=O)CN1 [Compound 9]
- number of proteins significantly downregulated [1, 3]: five
- number of proteins significantly upregulated [1, 3]: 15
- upregulated proteins that are putative direct targets of miR-27a ([1]; 100 nM, of the 15 upregulated, per TargetScan): Eleven
- cumulative distribution of fold change of miR-23a-3p targets [1, 4]: no significant change
- cumulative distribution of fold change of miR-24-3p targets [1, 4]: no significant change
- cumulative distribution of fold change of miR-27a-3p targets [1, 4]: significant upregulation
- effect on levels of mature miR-23a [2]: no effect
